The nature of series [1]: Cytotoxicity in 2.2.15 cells (uptake of neutral red dye). Type of series: cell-based. The following applies: human, nine daily additions. The method, then:
(§1) The antiviral activities and cytotoxicity of a macromolecular prodrug of Dextran-araA made according to the teachings in Example 40 and the parent nucleoside analog araA were evaluated using […] (obtained from transfection of the Hep G2 human hepatoblastoma cell line with HBV) as described by Korba and Gerin (Korba B E, Gerin J L., Antiviral Research 1992; 19:55-70.) It is standard system widely used to compare the safety and efficacy of drugs for the treatment of HBV. The data for β-L-FTC,a nucleoside analog with pharmacological properties similar to Lamivudine (3TC), in the same system are shown for comparison. Lamivudine is a recently developed nucleoside analog that has been approved by the U.S. FDA for the treatment of HIV and has shown promise in extensive clinical trials against HBV
Briefly, the test compounds were added to confluent cultures of 2.2.15 cells every 24 hours for nine consecutive days in fresh culture media (RPMI 1640 with 2% fetal bovine serum, Gibco Inc., Grand Island N.Y. U.S.A.). The amount of extracellular HBV virion DNA and intracellular HBV replication intermediates were determined using quantitative blot hybridization analyses (dot, Southern and northern blots, respectively, Korba B E, Gerin J L., Antiviral Research 1992; 19:55-70; Korba B E, Milman., Antiviral Research 1991; 15:217-228). […]

The test system of series [2] is HBV. Nature of the series: Antiviral activity on HBV replication in 2.2.15 cells (blot hybridization of virion DNA and replicative intermediates). Type of series: cell-based. The note with it: for EC90: Hepatitis B virus, 90% inhibition of viral replication. On the procedure:
A common method of evaluating the success of antiviral and anticancer agents is by measuring the efficacy and toxicity in tissue culture systems. The antiviral activity of the macromolecular prodrug made according to the teachings in Example 40 was evaluated in […], a common assay for evaluating efficacy and toxicity of agent for Hepatitis B, as described in detail in Example 42.
as §1
Briefly, the test compounds were added to confluent cultures of 2.2.15 cells every 24 hours for nine consecutive days in fresh culture media (RPMI 1640 with 2% fetal bovine serum, Gibco Inc., Grand Island N.Y. U.S.A.). The amount of extracellular HBV virion DNA and intracellular HBV replication intermediates were determined using quantitative blot hybridization analyses (dot, Southern and northern blots, respectively, Korba B E, Gerin J L., Antiviral Research 1992; 19:55-70; Korba B E, Milman., Antiviral Research 1991; 15:217-228).
Efficacy was determined by the concentrations of agent giving 90% inhibition of viral replication (EC90) as measured in changes of HBV virion DNA and replicative intermediates. Cytotoxicity caused by the agents was measured by the uptake of neutral red dye. The cytotoxic concentration (CC50), was considered to be the concentration at which 50% of the cells took up due the dye. The selectivity index (SI, CC50 /EC90) is measure of drug toxicity in relation to drug efficacy.

For series [3] the following is noted: background art; cited from earlier work.
The test system of another series is 2.2.15 cells. The following applies: β-L-FTC; Schinazi et al. Antimicrob. Agent Chem (1994) 38, 2172; cited from earlier work.
For series [4], the system named is HBV. The following applies: β-L-FTC, Schinazi et al. 1994, cited from earlier work.
Setting [5] is: Intracellular RI DNA (values in parentheses).

Structures are written as SMILES. Read-outs that look alike come from different tables or passages of the source.

The text below walks through data of US5981507A, “Polymeric carriers linked to nucleotide analogues via a phosphoramide bond” (Advanced Magnetics, Inc., priority 1996, dated 1999).

Usually CC50 stands for the concentration that lowers cell viability or growth by half. One may read the EC90 as the concentration at which the effect reaches the 90% level. In series [1], `Nc1ncnc2c1ncn2[C@@H]1O[C@H](CO)[C@@H](O)[C@@H]1O` [araA] registered a CC50 of 188 ± 20 µM. In addition, the “SI (CC50/EC90)” value in the series with HBV [2] (Extracellular DNA) is listed as 11; in the series on HBV [2] (setting [5]) it was 7.5. For the same compound, the EC90 with HBV [2] (Extracellular DNA (HBV virion)) was 17 ± 1.9 µM; in the series on HBV [2] (setting [5]), 25 ± 2.1 µM. The “SI (rounded)” value in the series on HBV [2] (text statement on the SI of Table 3) is “about 10”.

With `O=c1[nH]cnc2c1ncn2[C@@H]1O[C@H](CO)[C@@H](O)[C@@H]1O` [arahypoxanthine], the antiviral effect entry in series [3] is “little antiviral effect”.

For the compound `Nc1nc(=O)n([C@@H]2CS[C@H](CO)O2)cc1F` [β-L-FTC], the CC50 with 2.2.15 cells was 746 µM. In the series on HBV [4] (Extracellular DNA), the EC90 is 1.1 µM and the “SI (CC50/EC90)” value is 678. Moreover, in the series on HBV [4] (Intracellular RI DNA), the concentration for an effect of 90% (EC90) is 0.39 µM and the “SI (CC50/EC90)” value is 1913.
